The text below walks through data of patent publication US8431596B2 (Cancer Research Technology Limited, priority 2007, dated 2013).

This experiment has as its target T1, AXL (human catalytic domain) (Homo sapiens, UniProt P30530).
T1 construct: purchased Upstate Ltd. 14-512
T1 sequence (P30530 473-894): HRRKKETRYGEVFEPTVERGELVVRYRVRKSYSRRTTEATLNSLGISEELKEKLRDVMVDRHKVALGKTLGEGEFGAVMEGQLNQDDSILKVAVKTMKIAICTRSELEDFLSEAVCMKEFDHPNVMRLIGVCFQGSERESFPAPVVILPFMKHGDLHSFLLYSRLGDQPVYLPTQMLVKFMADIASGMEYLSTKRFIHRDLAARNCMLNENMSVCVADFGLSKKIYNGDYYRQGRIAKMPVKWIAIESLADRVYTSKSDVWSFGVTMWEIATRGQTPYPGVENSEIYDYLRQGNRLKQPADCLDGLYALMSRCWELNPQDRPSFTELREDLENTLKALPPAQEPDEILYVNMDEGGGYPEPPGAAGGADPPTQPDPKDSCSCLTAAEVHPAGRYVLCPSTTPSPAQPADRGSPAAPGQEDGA
Description: AXL (human catalytic domain) Enzyme Activity Assay (IMAP fluorescence polarisation). The class given is biochemical. In a few lines: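 Recombinant human AXL isoform 1 (aa473-894; final 15 nM) phosphorylated 100 nM fluorescein-CSK-tide with 150 μM ATP (KM) in HEPES pH 7.0/MgCl2/DTT buffer for 60 min at room temperature. IMAP fluorescence polarisation read after overnight binding; IC50 from 10-point 4-parameter logistic fits.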
A general note: Polarisation of emitted light reports the rotation of a fluorescent probe.

Where [1] appears, read: further data set (WW-001 through WW-169, XX-001 through XX-469, YY-001 through YY-016, ZZ-001 through ZZ-003), 150 μM ATP.
The mark [2] stands for this setting: first data set, recombinant AXL isoform 1 aa473-894, 150 μM ATP.

In the case of `Nc1cccc(-c2cccc3nc(Nc4ccc(OCCN5CCCC5)cc4)nn23)c1` [XX-255, [5-(3-Amino-phenyl)-[1,2,4]triazolo[1,5-a]pyridin-2-yl]-[4-(2-pyrrolidin-1-yl-ethoxy)-phenyl]-amine], the IC50 under setting [1] lay within 100 to 1000 nM. The same measure, in the same setting: to `N#CCCn1cc(-c2cccc3nc(Nc4ccc(OCCN5CCCC5)cc4)nn23)cn1` [XX-351] belongs 100 to 1000 nM; to `O=C(Nc1ccc(-c2cccc3nc(Nc4ccc(OCCN5CCCC5)cc4)nn23)cc1)c1ccncc1` [XX-249], 100 to 1000 nM. Turning to `Cn1cncc1CNc1cccc(-c2cccc3nc(Nc4ccc(OCCN5CCCC5)cc4)nn23)c1` [XX-259], under setting [1], the IC50 fell in the range of 100 to 1000 nM.

Compound `Clc1cccc(-c2cccc3nc(Nc4ccc(OCCN5CCCC5)cc4)nn23)c1` [XX-210] returned a 50% inhibitory concentration (IC50) under setting [1] of 100 to 1000 nM. On to `O=C(Nc1nc2cccc(NCc3ccccc3Cl)n2n1)C1CC1` [WW-082], for which the concentration for half-maximal inhibition (IC50) fell in the range of 1000 to 10000 nM under setting [2] and 1000 to 10000 nM under setting [1]. The compound `COc1cc(-c2cccc3nc(Nc4ccc(OCCN5CCCC5)cc4)nn23)cc(OC)c1OC` [XX-246] displayed an IC50 under setting [1] of 1000 to 10000 nM.

Take `CN(C)C/C=C/c1cccc(Nc2nc3cccc(-c4ccc5c(c4)OCCO5)n3n2)c1` [XX-083]: the half-maximal inhibitory concentration (IC50) reads like this: under setting [2], under 1000 nM; under setting [1], at most 100 nM. With `O=S(=O)(CCC(F)(F)F)n1cc(-c2cccc3nc(Nc4ccc(OCCN5CCCC5)cc4)nn23)cn1` [XX-382], the IC50 under setting [1] is at most 100 nM.

On to `c1cc(-c2ccco2)cc(-c2cccc3nc(Nc4ccc(OCCN5CCCC5)cc4)nn23)c1` [XX-168], for which the IC50 under setting [1] is 100 to 1000 nM. Consider `c1cc(-c2ccc3c(c2)OCCO3)n2nc(Nc3cnc(OCCN4CCCC4)nc3)nc2c1` [XX-097], for which the IC50 under setting [1] was 100 to 1000 nM. Still for that read-out and setting: with `Cc1ncc(CNc2cccc(-c3cccc4nc(Nc5ccc(OCCN6CCCC6)cc5)nn34)c2)n1C` [XX-449] the figure was 100 to 1000 nM; with `Cc1cccc(S(=O)(=O)n2cc(-c3cccc4nc(Nc5ccc(OCCN6CCCC6)cc5)nn34)cn2)c1` [XX-377], 100 to 1000 nM; with `CS(=O)(=O)c1ccc(-c2cccc3nc(Nc4ccc(OCCN5CCCC5)cc4)nn23)cc1` [XX-215, [5-(4-Methanesulfonyl-phenyl)-[1,2,4]triazolo[1,5-a]pyridin-2-yl]-[4-(2-pyrrolidin-1-yl-ethoxy)-phenyl]-amine], 100 to 1000 nM.

For the compound `Cc1csc(SCCn2cc(-c3cccc4nc(Nc5ccc(OCCN6CCCC6)cc5)nn34)cn2)n1` [XX-424], the half-maximal inhibitory concentration (IC50) under setting [1] was in the range of 100 to 1000 nM. For the compound `COc1ccc(-c2cccc3nc(Nc4ccc(OCCn5ccnc5)cc4)nn23)cc1` [XX-016], the IC50 was under 1000 nM under setting [2] and 100 to 1000 nM under setting [1]. Take `COc1ccc(-c2cccc3nc(NC(=O)C4CC4)nn23)cc1` [WW-005, cyclopropanecarboxylic acid [5-(4-methoxy-phenyl)-[1,2,4]triazolo[1,5-a]pyridin-2-yl]-amide]: the 50% inhibitory concentration (IC50) was under 1000 nM under setting [2] and 100 to 1000 nM under setting [1]. With `O=C(CN1CCCC1)Nc1cccc(Nc2nc3cccc(-c4ccc5c(c4)OCCO5)n3n2)c1` [XX-107], under setting [1], the IC50 was 100 to 1000 nM. Same read-out and setting: to `Cc1cccc(S(=O)(=O)NCc2cccc(-c3cccc4nc(Nc5ccc(OCCN6CCCC6)cc5)nn34)c2)c1` [XX-370] belongs 100 to 1000 nM.

As to `c1ccc(-c2ccc(-c3cccc4nc(Nc5ccc(OCCN6CCCC6)cc5)nn34)cc2)cc1` [XX-216], under setting [1], the IC50 was in the range of 100 to 1000 nM.

Take `CCN(CC)CCNc1ccc(-c2cccc3nc(NC(=O)C4CC4)nn23)cc1` [WW-153, Cyclopropanecarboxylic acid {5-[4-(2-diethylamino-ethylamino)-phenyl]-[1,2,4]triazolo[1,5-a]pyridin-2-yl}-amide]: the IC50 is, setting by setting: under setting [2], 1000 to 10000 nM; under setting [1], 1000 to 10000 nM. Under setting [1], `OCc1cccc(-c2cccc3nc(Nc4ccc(OCCN5CCCC5)cc4)nn23)c1` [XX-090, (3-{2-[4-(2-Pyrrolidin-1-yl-ethoxy)-phenylamino]-[1,2,4]triazolo[1,5-a]pyridin-5-yl}-phenyl)-methanol] showed an IC50 of at most 100 nM. Take `COc1ccc(-c2cccc3nc(Nc4ccc(N(C)C)cc4)nn23)cc1` [XX-057]: the IC50 was 1000 to 10000 nM under setting [2] and 1000 to 10000 nM under setting [1].

Take `c1cc(NCC2CC2)cc(-c2cccc3nc(Nc4ccc(OCCN5CCCC5)cc4)nn23)c1` [XX-444]: under setting [1], the IC50 fell in the range of 100 to 1000 nM. Consider `COC(=O)c1ccc(-c2cccc3nc(Nc4ccc(OCCN5CCCC5)cc4)nn23)cc1` [XX-199], for which the IC50 under setting [1] was in the range of 100 to 1000 nM.

Compound `CC(C)CCCn1cc(-c2cccc3nc(Nc4ccc(OCCN5CCCC5)cc4)nn23)cn1` [XX-345] displayed an IC50 under setting [1] of 100 to 1000 nM.

The compound `Cc1ccc(CCn2cc(-c3cccc4nc(Nc5ccc(OCCN6CCCC6)cc5)nn34)cn2)cc1` [XX-350] had an IC50 under setting [1] of 100 to 1000 nM. The same measure, in the same setting: to `Fc1cccc(CNc2cccc(-c3cccc4nc(Nc5ccc(OCCN6CCCC6)cc5)nn34)c2)c1` [XX-264] belongs 100 to 1000 nM; to `COc1ccc(S(=O)(=O)Nc2ccc(-c3cccc4nc(Nc5ccc(OCCN6CCCC6)cc5)nn34)cc2)cc1` [XX-254, 4-Methoxy-N-(4-{2-[4-(2-pyrrolidin-1-yl-ethoxy)-phenylamino]-[1,2,4]triazolo[1,5-a]pyridin-5-yl}-phenyl)-benzenesulfonamide], 100 to 1000 nM; to `CN1CCN(C(=O)c2cccc(Nc3nc4cccc(-c5ccc6c(c5)OCCO6)n4n3)c2)CC1` [XX-114], 100 to 1000 nM. On the same count and under the same terms, with `Oc1ccc(-c2cccc3nc(Nc4ccc(OCCN5CCCC5)cc4)nn23)cc1F` [XX-243] the figure was 100 to 1000 nM; with `CCOc1ccc(-c2nccc3nc(NC(=O)C4CC4)nn23)cc1` [ZZ-002], 100 to 1000 nM.

Compound `c1cc(-c2ccc3c(c2)OCCO3)n2nc(Nc3ccnc(OCCN4CCCCC4)c3)nc2c1` [XX-101] came in with an IC50 under setting [1] of at most 100 nM.

For `CC(c1ccccc1)n1cc(-c2cccc3nc(Nc4ccc(OCCN5CCCC5)cc4)nn23)cn1` (centres unmarked) [XX-306], the 50% inhibitory concentration (IC50) under setting [1] was 100 to 1000 nM. Still for that read-out and setting: with `O=C(Nc1cccc(-c2cccc3nc(Nc4ccc(OCCN5CCCC5)cc4)nn23)c1)c1cccnc1` [XX-180] the figure was 100 to 1000 nM. With `CC(C)(C)OC(=O)Nc1ccc(-c2cccc3nc(NC(=O)C4CC4)nn23)cc1` [WW-110], the IC50 is, setting by setting: under setting [2], 1000 to 10000 nM; under setting [1], 1000 to 10000 nM.

In the case of `c1cc(-c2ccc3c(c2)OCCCO3)n2nc(Nc3ccc(OCCN4CCCC4)cc3)nc2c1` [XX-209], under setting [1], the IC50 fell in the range of 100 to 1000 nM. Take `CCOc1ccc(-c2nccc3nc(Nc4cccc(OCCN(CC)CC)c4)nn23)cc1` [YY-005]: under setting [1], the IC50 lay in the range of 1000 to 10000 nM. As for `CNCCOc1ccc(Nc2nc3cccc(-c4ccc5c(c4)OCCO5)n3n2)cc1C` [XX-103], the IC50 under setting [1] is 100 to 1000 nM.

The compound `COc1cccc(Cn2cc(-c3cccc4nc(Nc5ccc(OCCN6CCCC6)cc5)nn34)cn2)c1` [XX-369] came in with a half-maximal inhibitory concentration (IC50) under setting [1] of 100 to 1000 nM. In turn, `c1csc(Cn2cc(-c3cccc4nc(Nc5ccc(OCCN6CCCC6)cc5)nn34)cn2)c1` [XX-275] returned an IC50 under setting [1] of 100 to 1000 nM. In the case of `CNCCOc1cccc(Nc2nc3cccc(-c4ccc5c(c4)OCO5)n3n2)c1` [XX-088], the IC50 was under 1000 nM under setting [2] and 100 to 1000 nM under setting [1].

As a reminder, the IC50 is the point on the concentration scale where inhibition reaches its midpoint.
